# Measured values reported in US20250304537A1 (Repare Therapeutics Inc., priority 2022, published 2025).
# Where two headings read alike, the source gives them in different places.
# Experiments:
# [1] = biological target: recombinant human Myt1 (full length PKMYT1) (Homo sapiens (Human), UniProt Q99640); assay: Recombinant human Myt1 kinase assay (ADP-Glo); format: biochemical; conditions: 10 μM ATP
# Summary of the method: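 Full-length insect-cell-expressed human Myt1 (18 nM final) was preincubated with compound (0.5% DMSO) for 15 min at 22 °C. The reaction ran with 10 μM ATP for 60 min at 30 °C in HEPES buffer with Mg2+/Mn2+ and DTT. ADP formed was read by ADP-Glo luminescence, giving IC50 and % max inhibition.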
# [2] = tested on: PKMYT1 (CDK1 pThr14) in FUOV1 cells; assay: PKMYT1 cell-based activity assay, CDK1 pThr14 AlphaLISA in FUOV1 cells; conditions: read-out: FUOV-1 CDK1 pThr14 IC50
# Summary of the method: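 FUOV1 cells were treated with PKMYT1 inhibitor for 2 h at 37 °C, then lysed. CDK1 pThr14 was measured by AlphaLISA, pairing an anti-pThr14 antibody with an anti-total CDK1 antibody (5 nM each). Signal read at 680/615 nm and used to derive IC50.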
# recombinant human Myt1 (full length PKMYT1), sequence (Q99640 whole entry): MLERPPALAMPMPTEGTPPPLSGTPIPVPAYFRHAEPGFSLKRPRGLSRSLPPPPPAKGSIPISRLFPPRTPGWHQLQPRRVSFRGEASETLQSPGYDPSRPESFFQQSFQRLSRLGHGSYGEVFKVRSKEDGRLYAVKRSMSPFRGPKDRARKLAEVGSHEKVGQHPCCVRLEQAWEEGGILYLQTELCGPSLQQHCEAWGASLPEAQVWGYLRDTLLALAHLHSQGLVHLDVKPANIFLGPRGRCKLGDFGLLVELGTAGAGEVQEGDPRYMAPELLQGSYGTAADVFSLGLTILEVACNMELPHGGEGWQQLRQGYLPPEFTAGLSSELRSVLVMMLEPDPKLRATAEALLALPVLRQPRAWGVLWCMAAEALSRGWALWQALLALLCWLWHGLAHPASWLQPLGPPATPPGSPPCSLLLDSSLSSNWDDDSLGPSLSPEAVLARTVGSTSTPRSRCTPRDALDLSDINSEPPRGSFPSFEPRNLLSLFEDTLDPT
Structure (SMILES),IC50 [1],"IC50 ([2]; 2 h, 2 h compound incubation)","IC50 ([2]; 2 h, 2 h incubation)","IC50 ([2]; 2 h, 2 hours with compound)",IC50 ([2]; 2 h incubation)
Cc1ccc2[nH]ncc2c1-c1nc(-c2ccccc2NC(=O)C2(C)CCC2)nc(C(N)=O)c1N [Compound 416],7 nM,22 nM,,,
"Cc1ccc2[nH]ncc2c1-c1nc(-c2ccccc2Nc2ncccn2)nc(C(N)=O)c1N [Compound 449, 5-amino-6-(5-methyl-1H-indazol-4-yl)-2-(2-(pyrimidin-2-ylamino)phenyl)pyrimidine-4-carboxamide]",7 nM,23 nM,,,
Cc1ccc2[nH]ncc2c1-c1nc(-c2cc(F)c(F)cc2NC2CCN(C)CC2)nc(C(N)=O)c1N [Compound 485],7 nM,53 nM,,,
CCC(COC)Oc1nccc(-c2cc(-c3c(C)ccc4[nH]ncc34)c(N)c(C(N)=O)n2)n1 (centres unmarked) [Compound 221],7 nM,,270 nM,,
Cc1ccc2[nH]ncc2c1-c1nc(-c2cccnc2NC[C@H]2CCCO2)nc(C(N)=O)c1N [Compound 601],3 nM,467 nM,,,
Cc1ccc2[nH]ncc2c1-c1cc(-c2csc(OC3COC3)n2)nc(C(N)=O)c1N [Compound 224],40 nM,,252 nM,,
Cc1ccc2[nH]ncc2c1-c1nc(-c2cc(F)c(F)cc2NC(=O)C2(C(F)(F)F)CC2)nc(C(N)=O)c1N [Compound 471],16 nM,261 nM,,,
"Cc1ccc2[nH]ncc2c1-c1nc(-c2cccnc2NC(=O)C(C)(C)C)nc(C(N)=O)c1N [Compound 805, 5-amino-6-(5-methyl-1H-indazol-4-yl)-2-(2-pivalamidopyridin-3-yl)pyrimidine-4-carboxamide]",3 nM,,,71 nM,
Cc1ccc(O)c(C)c1-c1cc(C2CC2)nc(C(N)=O)c1N [Compound 54],18 nM,,2410 nM,,
Cc1ccc2[nH]ncc2c1-c1nc(-c2ccc3c(c2)OCO3)nc(C(N)=O)c1N [Compound 297],9 nM,,422 nM,,
COCC(Oc1nccc(-c2cc(-c3c(C)ccc4[nH]ncc34)c(N)c(C(N)=O)n2)n1)c1ccccc1 (centres unmarked) [Compound 206],8 nM,,554 nM,,
Cc1ccc2[nH]ncc2c1-c1nc(-c2ccccc2NC(=O)C2CC(F)(F)C2)nc(C(N)=O)c1N [Compound 415],8 nM,210 nM,,,
Cc1ccc2[nH]ncc2c1-c1nc(-c2ccccc2NC(=O)C2CC(C)(C)C2)nc(C(N)=O)c1N [Compound 417],18 nM,899 nM,,,
"Cc1ccc2[nH]ncc2c1-c1nc(-c2ccncc2NC(=O)C(C)(C)C)nc(C(N)=O)c1N [Compound 483, 5-amino-6-(5-methyl-1H-indazol-4-yl)-2-(3-pivalamidopyridin-4-yl)pyrimidine-4-carboxamide]",2 nM,2 nM,,,
Cc1ccc2[nH]ncc2c1-c1cc(-c2cccc(F)n2)nc(C(N)=O)c1N [Compound 241],10 nM,,1970 nM,,
Cc1ccc2[nH]ncc2c1-c1nc(-c2cc(F)cnc2N[C@H]2CC[C@](O)(C(F)(F)F)CC2)nc(C(N)=O)c1N [Compound 835],11 nM,,,86 nM,
"Cc1ccc2[nH]ncc2c1-c1nc(-c2cccnc2NC(=O)C(C)(C)C)c(F)c(C(N)=O)c1N [Compound 905, 5-amino-3-fluoro-6-(5-methyl-1H-indazol-4-yl)-2′-pivalamido-[2,3′-bipyridine]-4-carboxamide]",< 3 nM,,,> 10000 nM,
Cc1ccc2[nH]ncc2c1-c1nc(-c2cccnc2Nc2nccn2C2CC2)nc(C(N)=O)c1N [Compound 902],619 nM,,,> 10000 nM,
Cc1ccncc1Nc1ncccc1-c1nc(C(N)=O)c(N)c(-c2c(C)ccc3[nH]ncc23)n1 [Compound 599],363 nM,630 nM,,,
"Cc1ccc2[nH]ncc2c1-c1c(N)c(C(N)=O)cc2c1oc1ccccc12 [Compound 418, 3-amino-4-(5-methyl-1H-indazol-4-yl)dibenzo[b,d]furan-2-carboxamide]",27 nM,1330 nM,,,
NC(=O)c1nc(-c2ccccc2)nc(-c2cccc3[nH]ncc23)c1N [Compound 68],50 nM,,> 10000 nM,,
Cc1ccc2[nH]ncc2c1-c1cc(-c2ccnc(S(C)(=O)=O)n2)nc(C(N)=O)c1N [Compound 168],29 nM,,7590 nM,,
Cc1ccc(O)c(C)c1-c1cc(-c2ccccn2)nc(C(N)=O)c1N [Compound 19],4 nM,,14 nM,,
Cc1ccc2[nH]ncc2c1-c1cc(-c2cccc(OCC3(N)CC3)n2)nc(C(N)=O)c1N [Compound 353],7 nM,,20 nM,,
Cc1ccc2[nH]ncc2c1-c1cc(-c2ccnc(N3CCCC3)n2)nc(C(N)=O)c1N [Compound 174],10 nM,,939 nM,,
Cc1ccc2[nH]ncc2c1-c1nc(-c2cccnc2Nc2ncccc2F)nc(C(N)=O)c1N [Compound 621],3 nM,3 nM,,,
Cc1ccc2[nH]ncc2c1-c1nc(-c2ccc(F)cc2Nc2ncccc2C#N)nc(C(N)=O)c1N [Compound 613],4 nM,6 nM,,,
Cc1ccc2[nH]ncc2c1-c1cc(-c2ccnc(OCCc3nccs3)n2)nc(C(N)=O)c1N [Compound 313],6 nM,,137 nM,,
Cc1ccc2[nH]ncc2c1-c1cc(-c2cccc(OCCN3CCOCC3)n2)nc(C(N)=O)c1N [Compound 185],7 nM,,369 nM,,
Cc1ccc2[nH]ncc2c1-c1nc(-c2cnccc2NC(=O)OC(C)(C)C)nc(C(N)=O)c1N [Compound 465],5 nM,233 nM,,,

# The remaining lines, values ahead:
IC50 [1],"IC50 ([2]; 2 h, 2 h compound incubation)","IC50 ([2]; 2 h, 2 h incubation)","IC50 ([2]; 2 h, 2 hours with compound)",IC50 ([2]; 2 h incubation),Structure (SMILES)
5 nM,,134 nM,,,Cc1ccc2[nH]ncc2c1-c1cc(-c2cccc(OCc3ccnnc3)n2)nc(C(N)=O)c1N [Compound 326]
4050 nM,,,> 10000 nM,,CCNC(=O)c1ccccc1-c1nc(C(N)=O)c(N)c(-c2c(C)ccc3[nH]ncc23)n1 [Compound 807]
7 nM,206 nM,,,,Cc1ccc2[nH]ncc2c1-c1nc(-c2cc(F)cc(F)c2NCC(F)F)nc(C(N)=O)c1N [Compound 436]
4 nM,,,147 nM,,Cc1ccc2[nH]ncc2c1-c1nc(-c2cn(C)nc2NC(C)C)nc(C(N)=O)c1N [Compound 904]
716 nM,,,,4560 nM,"Cc1ccc2[nH]ncc2c1-c1cc(-c2cccc(OCc3ncco3)n2)nc(C(N)=O)c1N (atropisomer, axis not shown) [Compound 273]"
5 nM,,131 nM,,,Cc1ccc(O)c(C)c1-c1cc(-c2ccns2)cc(C(N)=O)c1N [Compound 92]
21 nM,,132 nM,,,Cc1ccc2[nH]ncc2c1-c1cc(-c2cccc(OC3(c4ncccn4)COC3)n2)nc(C(N)=O)c1N [Compound 256]
8 nM,,259 nM,,,Cc1ccc(O)c(C)c1-c1cc(-c2ccccn2)cc(C(N)=O)c1N [Compound 80]
7 nM,,46 nM,,,Cc1ccc(O)c(C)c1-c1cc(-c2cccc(OC3CCOCC3)n2)nc(C(N)=O)c1N [Compound 57]
4 nM,137 nM,,,,Cc1ccc2[nH]ncc2c1-c1nc(-c2ccccc2NC(=O)C2(C)CC(F)(F)C2)nc(C(N)=O)c1N [Compound 462]
23 nM,,883 nM,,,Cc1ccc(-c2nc(C(N)=O)c(N)c(-c3c(C)ccc4[nH]ncc34)n2)s1 [Compound 110]
17 nM,780 nM,,,,Cc1ccc2[nH]ncc2c1-c1nc(-c2cccc3c2NC(=O)C3(F)F)nc(C(N)=O)c1N [Compound 395]
5 nM,158 nM,,,,Cc1ccc2[nH]ncc2c1-c1nc(-c2cc(F)c(F)cc2NS(=O)(=O)C2CC2)nc(C(N)=O)c1N [Compound 480]
9 nM,,596 nM,,,Cc1ccc2[nH]ncc2c1-c1cc(-c2ccnc(OCCc3ccn(C)n3)n2)nc(C(N)=O)c1N [Compound 312]
4 nM,,367 nM,,,"Cc1ccc2[nH]ncc2c1-c1cc(-c2cccc(O[C@H]3CCOC3)n2)nc(C(N)=O)c1N (atropisomer, axis not shown) [Compound 226]"
9 nM,,144 nM,,,COCC(COC)Oc1nccc(-c2cc(-c3c(C)ccc4[nH]ncc34)c(N)c(C(N)=O)n2)n1 [Compound 207]
3 nM,8 nM,,,,Cc1ccc2[nH]ncc2c1-c1nc(-c2ccccc2NC(=O)C(C)(C)F)nc(C(N)=O)c1N [Compound 434]
3 nM,,21 nM,,,Cc1ccc2[nH]ncc2c1-c1nc(-c2ccccc2NC(=O)C(C)(C)C)nc(C(N)=O)c1N [Compound 377]
5 nM,,,,40 nM,Cc1ccc(O)c(C)c1-c1cc(-c2ccnnc2)nc(C(N)=O)c1N [Compound 63]
4 nM,49 nM,,,,Cc1ccc2[nH]ncc2c1-c1nc(-c2ccccc2NC(C)C)nc(C(N)=O)c1N [Compound 419]
4 nM,,,,191 nM,Cc1ccc2[nH]ncc2c1-c1cc(-c2cccc(OCc3ncco3)n2)nc(C(N)=O)c1N [Compound 267]
5 nM,,112 nM,,,Cc1ccc(O)c(C)c1-c1cc(-c2nccs2)cc(C(N)=O)c1N [Compound 81]
5 nM,19 nM,,,,Cc1nccc(Nc2cc(F)ccc2-c2nc(C(N)=O)c(N)c(-c3c(C)ccc4[nH]ncc34)n2)n1 [Compound 525]
9 nM,,298 nM,,,Cc1ccc(O)c(C)c1-c1cc(-c2cncnc2)nc(C(N)=O)c1N [Compound 71]
4 nM,,,147 nM,,Cc1ccc2[nH]ncc2c1-c1nc(-c2cn(C)nc2NC2CC(F)(F)C2)nc(C(N)=O)c1N [Compound 896]
